Data reported in US11884661B2, “3-substituted propionic acids as αV integrin inhibitors” (BRISTOL-MYERS SQUIBB COMPANY, priority 2016, dated 2024).

What was measured:
human αVβ8 = human αVβ8 (Homo sapiens, UniProt P06756+P26012); assay: human αVβ8 HTRF binding assay
Description: (§1) All binding assays used the HTRF (homogeneous time resolved fluorescence) technology from Cisbio International, therefore all assays are described as HTRF binding assays. The assay results for the Examples are listed above together with the characterization data. The HTRF binding assays are established for the following integrins: human αVβ6, human αVβ1, human αVβ3, human αVβ5, and human αVβ8. All assays used the following assay buffer: 20 mM Tris, pH 7.4, 1 mM MgCl2, 1 mM MnCl2, 0.01% Tween 20, and 0.01% BSA. Alternatively, a SPA-based assay was used for evaluation of receptor binding. […]

human αVβ1 = human αVβ1 (Homo sapiens, UniProt P05556+P06756); assay: human αVβ1 HTRF binding assay
Description: (§2) All binding assays used the HTRF (homogeneous time resolved fluorescence) technology from Cisbio International, therefore all assays are described as HTRF binding assays. The assay results for the Examples are listed above together with the characterization data. The HTRF binding assays are established for the following integrins: human αVβ6, human αVβ1, human αVβ3, human αVβ5, and human αVβ8. All assays used the following assay buffer: 20 mM Tris, pH 7.4, 1 mM MgCl2, 1 mM MnCl2, 0.01% Tween 20, and 0.01% BSA. Alternatively, a SPA-based assay was used for evaluation of receptor binding.
(§3) The following describes the components and a representative procedure for the human αVβ6 HTRF binding assay: Recombinant human αVβ6 Integrin (R & D systems, 3817-AV) was biotinylated. Biotinylated human αVβ6 Integrin was added to assay vessel at a final concentration of 1.25 nM. FITC-conjugated fibronectin (Cytoskeleton, FNR02) was then added at the final concentration of 5 nM. The mixture was centrifuged at 600 rpm for three minutes using Thermo Fisher Heraeus Multifuge X3 centrifuge and then incubated at RT for an hour. Streptavidin Terbium (Cisbio international 610STLB) was then added at the final concentration of 0.625 nM. The resulting mixture was centrifuged at 600 rpm for three minutes using Thermo Fisher Heraeus Multifuge X3 centrifuge and then incubated at room temperature overnight in dark before reading HTRF signals.

human αVβ6 = molecular target: T1, human αVβ6 (Homo sapiens, UniProt P06756+P18564); assay: human αVβ6 HTRF binding assay; details: recombinant human αVβ6 integrin, FITC-conjugated fibronectin
T1 construct: purchased R & D systems 3817-AV
How it was run: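 Biotinylated recombinant αVβ6 (1.25 nM final) incubated with FITC-fibronectin (5 nM) 1 h at RT, then streptavidin-terbium (0.625 nM) added and incubated overnight at RT in the dark before HTRF read. Buffer: 20 mM Tris pH 7.4, 1 mM MgCl2, 1 mM MnCl2, 0.01% Tween 20, 0.01% BSA.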

human αVβ5 = human αVβ5 (Homo sapiens, UniProt P06756+P18084); assay: human αVβ5 HTRF binding assay
Description: as §1

human αVβ3 = human αVβ3 (Homo sapiens, UniProt P05106+P06756); assay: human αVβ3 HTRF binding assay
Description: as §2, §3

human αVβ5, sequence (P06756 31-992 limits assumed): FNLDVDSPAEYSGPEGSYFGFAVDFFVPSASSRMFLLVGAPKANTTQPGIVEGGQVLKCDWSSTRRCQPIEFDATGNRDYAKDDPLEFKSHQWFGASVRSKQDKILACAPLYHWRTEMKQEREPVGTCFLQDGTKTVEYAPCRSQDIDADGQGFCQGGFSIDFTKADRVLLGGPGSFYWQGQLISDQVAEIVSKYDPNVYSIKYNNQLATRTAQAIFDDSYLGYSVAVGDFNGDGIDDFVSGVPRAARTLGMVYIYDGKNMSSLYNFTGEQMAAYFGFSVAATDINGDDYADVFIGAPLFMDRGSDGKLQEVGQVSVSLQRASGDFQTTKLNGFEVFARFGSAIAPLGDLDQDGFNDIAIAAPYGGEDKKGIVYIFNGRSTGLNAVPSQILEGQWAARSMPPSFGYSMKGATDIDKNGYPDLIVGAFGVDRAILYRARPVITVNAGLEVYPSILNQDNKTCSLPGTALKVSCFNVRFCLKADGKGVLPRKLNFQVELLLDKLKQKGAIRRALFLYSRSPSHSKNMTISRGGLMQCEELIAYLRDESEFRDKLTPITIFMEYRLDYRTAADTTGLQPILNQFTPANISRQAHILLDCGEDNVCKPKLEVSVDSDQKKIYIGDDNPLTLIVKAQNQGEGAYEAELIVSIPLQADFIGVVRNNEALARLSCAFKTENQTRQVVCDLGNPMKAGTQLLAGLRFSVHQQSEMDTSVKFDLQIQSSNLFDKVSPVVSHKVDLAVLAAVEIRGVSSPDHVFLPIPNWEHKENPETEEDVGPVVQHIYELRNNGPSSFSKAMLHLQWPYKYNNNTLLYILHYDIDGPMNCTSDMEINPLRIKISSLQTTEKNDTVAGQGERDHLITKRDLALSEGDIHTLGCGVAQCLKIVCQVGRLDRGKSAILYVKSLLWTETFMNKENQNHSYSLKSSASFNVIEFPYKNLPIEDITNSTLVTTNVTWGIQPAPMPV
human αVβ5, sequence (P18084 24-719 limits assumed): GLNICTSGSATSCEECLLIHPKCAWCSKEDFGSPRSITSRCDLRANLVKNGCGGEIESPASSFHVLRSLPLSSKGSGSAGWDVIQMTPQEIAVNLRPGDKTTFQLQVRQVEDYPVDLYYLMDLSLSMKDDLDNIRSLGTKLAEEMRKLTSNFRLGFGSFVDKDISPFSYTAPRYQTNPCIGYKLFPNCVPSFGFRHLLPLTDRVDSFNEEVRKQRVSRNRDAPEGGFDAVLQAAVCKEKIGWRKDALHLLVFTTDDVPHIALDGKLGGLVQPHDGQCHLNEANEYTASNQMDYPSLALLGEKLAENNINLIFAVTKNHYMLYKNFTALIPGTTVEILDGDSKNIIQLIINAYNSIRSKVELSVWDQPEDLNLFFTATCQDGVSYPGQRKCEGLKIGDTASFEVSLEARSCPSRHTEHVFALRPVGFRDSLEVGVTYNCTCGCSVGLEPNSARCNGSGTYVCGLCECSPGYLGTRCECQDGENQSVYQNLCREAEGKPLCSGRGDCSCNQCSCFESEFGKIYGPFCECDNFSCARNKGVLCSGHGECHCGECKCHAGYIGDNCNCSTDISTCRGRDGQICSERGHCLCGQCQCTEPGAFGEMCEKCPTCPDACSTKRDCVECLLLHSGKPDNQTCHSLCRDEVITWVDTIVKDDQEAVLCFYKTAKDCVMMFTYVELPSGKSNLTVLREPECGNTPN
T1 sequence (P06756 31-992 limits assumed): as the sequence (P06756 31-992 limits assumed) above
T1 sequence (P18564 22-707 limits assumed): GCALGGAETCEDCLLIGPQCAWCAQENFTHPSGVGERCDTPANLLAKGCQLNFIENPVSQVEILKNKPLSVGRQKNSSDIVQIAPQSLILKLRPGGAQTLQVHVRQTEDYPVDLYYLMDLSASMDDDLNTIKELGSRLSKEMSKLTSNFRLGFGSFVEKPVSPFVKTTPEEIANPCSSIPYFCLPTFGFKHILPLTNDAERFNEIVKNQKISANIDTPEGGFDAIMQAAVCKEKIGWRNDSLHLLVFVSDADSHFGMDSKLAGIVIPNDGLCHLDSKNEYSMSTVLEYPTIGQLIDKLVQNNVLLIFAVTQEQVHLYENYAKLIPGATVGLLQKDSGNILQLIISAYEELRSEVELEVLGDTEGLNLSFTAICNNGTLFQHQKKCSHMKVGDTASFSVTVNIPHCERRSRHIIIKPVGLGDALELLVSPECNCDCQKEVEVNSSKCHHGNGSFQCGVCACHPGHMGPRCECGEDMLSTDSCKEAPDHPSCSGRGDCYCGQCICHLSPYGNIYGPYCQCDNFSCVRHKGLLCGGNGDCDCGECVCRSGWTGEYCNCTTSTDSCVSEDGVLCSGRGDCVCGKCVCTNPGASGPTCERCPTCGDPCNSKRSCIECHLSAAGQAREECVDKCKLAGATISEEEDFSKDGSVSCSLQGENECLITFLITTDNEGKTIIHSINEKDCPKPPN
human αVβ1, sequence (P06756 31-992 limits assumed): as the sequence (P06756 31-992 limits assumed) above
human αVβ1, sequence (P05556 21-728 limits assumed): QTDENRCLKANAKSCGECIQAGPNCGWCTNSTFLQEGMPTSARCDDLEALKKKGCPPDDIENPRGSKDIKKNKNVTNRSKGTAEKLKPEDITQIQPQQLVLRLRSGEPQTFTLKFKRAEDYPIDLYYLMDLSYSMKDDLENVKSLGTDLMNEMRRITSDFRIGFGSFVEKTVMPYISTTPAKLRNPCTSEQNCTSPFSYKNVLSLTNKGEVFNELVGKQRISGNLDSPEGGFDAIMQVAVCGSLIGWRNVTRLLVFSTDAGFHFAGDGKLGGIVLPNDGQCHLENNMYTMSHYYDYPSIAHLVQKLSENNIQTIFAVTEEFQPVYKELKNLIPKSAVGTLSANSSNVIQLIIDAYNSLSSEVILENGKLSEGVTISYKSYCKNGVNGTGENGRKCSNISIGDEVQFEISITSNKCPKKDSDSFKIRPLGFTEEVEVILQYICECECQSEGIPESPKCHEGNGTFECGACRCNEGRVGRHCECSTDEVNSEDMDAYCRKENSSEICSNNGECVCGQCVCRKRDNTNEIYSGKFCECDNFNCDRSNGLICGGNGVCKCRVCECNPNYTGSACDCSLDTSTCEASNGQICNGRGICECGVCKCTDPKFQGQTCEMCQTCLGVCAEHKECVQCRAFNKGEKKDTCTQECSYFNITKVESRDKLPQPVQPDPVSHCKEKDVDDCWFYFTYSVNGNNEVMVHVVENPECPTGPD
human αVβ8, sequence (P06756 31-992 limits assumed): as the sequence (P06756 31-992 limits assumed) above
human αVβ8, sequence (P26012 43-684 limits assumed): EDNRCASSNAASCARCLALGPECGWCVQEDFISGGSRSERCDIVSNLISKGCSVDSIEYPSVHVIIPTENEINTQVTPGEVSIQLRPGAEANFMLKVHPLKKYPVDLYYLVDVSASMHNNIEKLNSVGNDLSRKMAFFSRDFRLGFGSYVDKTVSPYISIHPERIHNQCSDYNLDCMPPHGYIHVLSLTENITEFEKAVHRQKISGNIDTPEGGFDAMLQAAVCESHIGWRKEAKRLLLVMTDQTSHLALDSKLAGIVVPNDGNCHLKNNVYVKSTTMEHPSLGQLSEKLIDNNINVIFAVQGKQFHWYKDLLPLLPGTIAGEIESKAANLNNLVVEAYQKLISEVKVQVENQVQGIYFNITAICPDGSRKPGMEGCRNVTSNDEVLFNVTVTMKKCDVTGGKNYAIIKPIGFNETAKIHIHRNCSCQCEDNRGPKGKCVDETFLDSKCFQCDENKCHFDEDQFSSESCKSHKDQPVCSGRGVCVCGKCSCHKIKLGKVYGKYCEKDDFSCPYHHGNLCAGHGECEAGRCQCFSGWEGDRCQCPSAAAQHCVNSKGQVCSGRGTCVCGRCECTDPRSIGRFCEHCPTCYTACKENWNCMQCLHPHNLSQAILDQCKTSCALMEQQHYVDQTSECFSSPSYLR
human αVβ3, sequence (P06756 31-992 limits assumed): as the sequence (P06756 31-992 limits assumed) above
human αVβ3, sequence (P05106 27-718 limits assumed): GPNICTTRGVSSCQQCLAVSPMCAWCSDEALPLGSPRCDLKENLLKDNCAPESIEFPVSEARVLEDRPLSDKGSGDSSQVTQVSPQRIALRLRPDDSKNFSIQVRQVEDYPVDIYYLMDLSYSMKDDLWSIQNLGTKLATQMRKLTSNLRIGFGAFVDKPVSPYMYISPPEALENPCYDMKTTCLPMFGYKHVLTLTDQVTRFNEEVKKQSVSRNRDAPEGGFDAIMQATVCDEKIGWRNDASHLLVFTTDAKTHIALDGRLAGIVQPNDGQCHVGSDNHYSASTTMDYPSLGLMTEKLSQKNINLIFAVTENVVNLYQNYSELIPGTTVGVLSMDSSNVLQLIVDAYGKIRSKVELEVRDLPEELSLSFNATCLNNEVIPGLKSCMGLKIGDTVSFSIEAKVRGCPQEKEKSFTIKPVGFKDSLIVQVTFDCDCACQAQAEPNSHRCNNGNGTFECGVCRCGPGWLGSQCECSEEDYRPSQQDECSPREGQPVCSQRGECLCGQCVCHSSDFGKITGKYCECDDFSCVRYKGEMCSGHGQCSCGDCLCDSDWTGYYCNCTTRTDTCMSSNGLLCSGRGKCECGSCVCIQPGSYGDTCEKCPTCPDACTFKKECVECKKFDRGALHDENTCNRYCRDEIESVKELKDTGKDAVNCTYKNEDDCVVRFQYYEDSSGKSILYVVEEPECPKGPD

Compound	IC50 (human αVβ8) [nM]	IC50 (human αVβ1) [nM]	IC50 (human αVβ6) [nM]	IC50 (human αVβ5) [nM]	IC50 (human αVβ3) [nM]
COc1ccc([C@H](CC(=O)O)N2CCC(CCCc3ccc4c(n3)NCCC4)C2)cn1 (stereo partly drawn) [Example 21, (3S)-3-(6-Methoxypyridin-3-yl)-3-(3-(3-(5,6,7,8-tetrahydro-1,8-naphthyridin-2-yl)propyl)pyrrolidin-1-yl)propanoic acid]	180	6500	1.4	10	4.4
O=C(O)CC(c1cnc2ccccc2c1)n1ccc(CCCc2ccc3c(n2)NCCC3)n1 (racemic) [Example 29, (±)-3-(Quinolin-3-yl)-3-(3-(3-(5,6,7,8-tetrahydro-1,8-naphthyridin-2-yl)propyl)-1H-pyrazol-1-yl)propanoic acid]	2900	286	11.2	6.5	1.7
COc1cncc(C(CC(=O)O)n2ccc(CCCc3ccc4c(n3)NCCC4)n2)c1 (single isomer, unassigned) [Example 65, 3-(5-methoxypyridin-3-yl)-3-(3-(3-(5,6,7,8-tetrahydro-1,8-naphthyridin-2-yl)propyl)-1H-pyrazol-1-yl)propanoic acid]			410	1.1	4.3
Cc1ncc([C@H](CC(=O)O)n2ccc(CCCc3ccc4c(n3)NCCC4)n2)cn1 [Example 54, (S)-3-(2-Methylpyrimidin-5-yl)-3-(3-(3-(5,6,7,8-tetrahydro-1,8-naphthyridin-2-yl)propyl)-1H-pyrazol-1-yl)propanoic acid]			18	0.99	7.3
CCOc1ncc(C(CC(=O)O)n2ccc(CCCc3ccc4c(n3)NCCC4)n2)cn1 (racemic) [Example 27, (±)-3-(2-Ethoxypyrimidin-5-yl)-3-(3-(3-(5,6,7,8-tetrahydro-1,8-naphthyridin-2-yl)propyl)-1H-pyrazol-1-yl)propanoic acid]	1800	144	9.4	0.76	2.3
COc1ccc(C(CC(=O)O)n2ccc(CCCc3ccc4c(n3)NCCC4)n2)cn1 (single isomer, unassigned) [Example 3, 3-(6-Methoxypyridin-3-yl)-3-(3-(3-(5,6,7,8-tetrahydro-1,8-naphthyridin-2-yl)propyl)-1H-pyrazol-1-yl)propanoic acid]	1120	65	3.2	11	3.2
O=C(O)CC(c1cccc(N2CCOCC2)c1)n1ccc(CCCc2ccc3c(n2)NCCC3)n1 (racemic) [Example 32, (±)-3-(3-Morpholinophenyl)-3-(3-(3-(5,6,7,8-tetrahydro-1,8-naphthyridin-2-yl)propyl)-1H-pyrazol-1-yl)propanoic acid]	2700	43	4.3		5.5
COc1ccc(C(CC(=O)O)c2nc(CCCc3ccc4c(n3)NCCC4)cs2)cc1F (single isomer, unassigned) [Example 38, 3-(3-Fluoro-4-methoxyphenyl)-3-(4-(3-(5,6,7,8-tetrahydro-1,8-naphthyridin-2-yl)propyl)thiazol-2-yl)propanoic acid]	860	66	2.1		2.3
COc1ccc(C(CC(=O)O)n2ccc(CCCc3ccc4c(n3)NCCC4)n2)cn1 (racemic) [Example 2, (±)-3-(6-Methoxypyridin-3-yl)-3-(3-(3-(5,6,7,8-tetrahydro-1,8-naphthyridin-2-yl)propyl)-1H-pyrazol-1-yl)propanoic acid]	420		6.8	0.34	2.7
COc1ccc(C(CC(=O)O)c2nc(CCCc3ccc4c(n3)NCCC4)cs2)cn1 (single isomer, unassigned) [Example 15, 3-(6-Methoxypyridin-3-yl)-3-(4-(3-(5,6,7,8-tetrahydro-1,8-naphthyridin-2-yl)propyl)thiazol-2-yl)propanoic acid]	330	55	0.7		1.4
COc1ccc(C(CC(=O)O)c2nc(CCCCc3ccc4c(n3)NCCC4)cs2)cn1 (single isomer, unassigned) [Example 14, 3-(6-Methoxypyridin-3-yl)-3-(4-(4-(5,6,7,8-tetrahydro-1,8-naphthyridin-2-yl)butyl)thiazol-2-yl)propanoic acid]	510	241	2.1	11	1.9
COc1ccc(C(CC(=O)O)c2nc(CCCCc3ccc4c(n3)NCCC4)cs2)cc1F (single isomer, unassigned) [Example 37, 3-(3-Fluoro-4-methoxyphenyl)-3-(4-(4-(5,6,7,8-tetrahydro-1,8-naphthyridin-2-yl)butyl)thiazol-2-yl)propanoic acid]	870	160	2	1.1	1.7
COc1cncc(C(CC(=O)O)n2nccc2CCCc2ccc3c(n2)NCCC3)c1 (single isomer, unassigned) [Example 63, 3-(5-methoxypyridin-3-yl)-3-(5-(3-(5,6,7,8-tetrahydro-1,8-naphthyridin-2-yl)propyl)-1H-pyrazol-1-yl)propanoic acid]	770		13	0.87	8
CCOC(=O)C[C@@H](c1ccc(OC)nc1)n1ccc(CCCc2ccc3c(n2)NCCC3)n1 [Example 47, Ethyl (S)-3-(6-methoxypyridin-3-yl)-3-(3-(3-(5,6,7,8-tetrahydro-1,8-naphthyridin-2-yl)propyl)-1H-pyrazol-1-yl)propanoate]			11	270	1120
O=C(O)CC(c1ccc2c(c1)CCO2)n1ccc(CCCc2ccc3c(n2)NCCC3)n1 (racemic) [Example 30, (±)-3-(2,3-Dihydrobenzofuran-5-yl)-3-(3-(3-(5,6,7,8-tetrahydro-1,8-naphthyridin-2-yl)propyl)-1H-pyrazol-1-yl)propanoic acid]	2010	100	5.7	230	11
COc1ccc(C(CC(=O)O)n2ccc(OCCCc3ccc4c(n3)NCCC4)n2)cn1 (racemic) [Example 48, (±)-3-(6-Methoxypyridin-3-yl)-3-(3-(3-(5,6,7,8-tetrahydro-1,8-naphthyridin-2-yl)propoxy)-1H-pyrazol-1-yl)propanoic acid]			29	2.7	7.5
Cc1cc(C)n(-c2cccc(C(CC(=O)O)n3ccc(CCCc4ccc5c(n4)NCCC5)n3)c2)n1 (racemic) [Example 31, (±)-3-(3-(3,5-Dimethyl-1H-pyrazol-1-yl)phenyl)-3-(3-(3-(5,6,7,8-tetrahydro-1,8-naphthyridin-2-yl)propyl)-1H-pyrazol-1-yl)propanoic acid]	3300	63	5.2		7.5
COc1ccc(C(CC(=O)O)n2ccc(CCCCc3ccc4c(n3)NCCC4)n2)cn1 (racemic) [Example 1, (±)-3-(6-Methoxypyridin-3-yl)-3-(3-(4-(5,6,7,8-tetrahydro-1,8-naphthyridin-2-yl)butyl)-1H-pyrazol-1-yl)propanoic acid]	262		6	1.5	2.4
COc1ccc(C(CC(=O)O)c2ncc(CCCCc3ccc4c(n3)NCCC4)s2)cc1F (single isomer, unassigned) [Example 40]	2600		17	10	28
COc1ccc(C(CC(=O)O)n2ccc(-c3cccc(-c4ccc5c(n4)NCCC5)c3)n2)cn1 (racemic) [Example 46, (±)-3-(6-Methoxypyridin-3-yl)-3-(3-(3-(5,6,7,8-tetrahydro-1,8-naphthyridin-2-yl)phenyl)-1H-pyrazol-1-yl)propanoic acid]	8200		28	11	14
